Reference: patent US8795659B2 (priority 2004, dated 2014)

Tested on: Lewis Lung Carcinoma
Settings: mouse, in vivo, ip

| SMILES | % ILS (excluding survivors) [%] | Highest non-toxic dosage | T-C (tumor growth delay to 750 mg) [days] | tumor free survivors |
| --- | --- | --- | --- | --- |
| O=P1(N(CCCl)CCCl)NCCCO1 (centres unmarked) [Cyclophosphamide, cyclophosphamide] | 68 | 200 | 27 | 5/10 |
| O=P1(NCCCl)OCCCN1CCCl (centres unmarked) [Ifosfamide] | 55 | 300 | 18 | 7/10 |
